Assays:
KB cells = assay: Cytotoxicity in KB cells, growth over two population doublings; format: cell-based
Procedure: (§1) Cells and viruses. The routine growth and passage of KB cells was performed in monolayer cultures using minimal essential medium (MEM) with either Hanks salts [MEM(H)] or Earle salts [MEM(E)] supplemented with 10% calf serum. The sodium bicarbonate concentration was varied to meet the buffering capacity required. Cultures of diploid human foreskin fibroblasts (HFF) or MRC-5 cells were grown in medium consisting of MEM(E) with 10% fetal bovine serum. Cells were passaged at 1:2 to 1:10 dilutions according to conventional procedures by using 0.05% trypsin plus 0.02% EDTA in a HEPES buffered salt solution (HBS) (Shipman, C., Jr., Proc. Soc. Exp. Biol. 130:305-310 (1969)) as described previously. Turk, S. R., et al., Antimicrob. Agents Chemother. 31:544-550 (1987). HFF and MRC-5 cells were passaged only at 1:2 dilutions. CEM cells were maintained in suspension culture as detailed previously. Kucera, L. S., et al., AIDS Res. Human Retroviruses 9:307-314 (1993).
(§2) Cytotoxicity assays. Two different assays were used to explore cytotoxicity of selected compounds as we have detailed previously. (i) Cytotoxicity produced in stationary HFF cells and in growing CEM cells was determined by microscopic inspection of cells used in plaque and RT assays which were not affected by the virus. Turk, S. R., et al., Antimicrob. Agents Chemother. 31:544-550 (1987). (ii) The effect of compounds during two population doublings of KB cells was determined by crystal violet staining and spectrophotometric quantitation of dye eluted from stained cells. Prichard, M. N., et al., Antimicrob. Agents Chemother. 35:1060-1065 (1991).
(§3) Data Analysis. Dose-response relationships were constructed by linearly regressing the percent inhibition of parameters derived in the preceding sections against log drug concentrations. Fifty-percent inhibitory (IC50) concentrations were calculated from the regression lines. Samples containing positive controls (acyclovir for HSV-1, ganciclovir for HCMV, and 2-acetylpyridine thiosemicarbazone for cytotoxicity) were used in all assays.

HSV-1 = HSV-1 ELISA in BSC-1 cells; format: cell-based, herpes simplex 1 (HSV-1); settings: BSC-1 cells; ELISA
Procedure: (§4) Virological procedures. Stock HCMV was prepared by infecting HFF cells at a multiplicity of infection (m.o.i.) of <0.01 plaque-forming units (p.f.u.) per cell. Cell growth medium was changed every four days until cytopathology was evident in all cells (approximately 21 days). Supernatant fluids were retained as the virus stock. High titer HSV-1 stocks were prepared by infecting KB cells at an m.o.i. of <0.1 as detailed previously. Turk, S. R., et al., Antimicrob. Agents Chemother. 31:544-550 (1987). Virus titers were determined using monolayer cultures of HFF cells for HCMV and monolayer cultures of BSC-1 cells for HSV-1 as described earlier. Prichard, M. N., et al., J. Virol. Methods 28:101-106 (1990). Briefly, HFF or BSC-1 cells were planted as described above in 96-well cluster dishes and incubated overnight at 37° C. in a humidified 3% CO297% air atmosphere. The next day cultures were inoculated with HCMV or HSV-1 and serially diluted 1:3 across the remaining eleven columns of the 96-well plate. Cultures were incubated at 37° C. for 2 hr to permit virus adsorption and then virus inoculum was replaced with 0.2 mL of fresh medium. Cultures were incubated for seven days for HCMV, two or three days for HSV-1, medium was removed, and the cell sheets were stained with 0.1% crystal violet in 20% methanol. Plaques were enumerated under 20-fold magnification in wells having the dilution which gave 5 to 20 plaques per well. Virus titers were calculated according to the following Formula: Titer (p.f.u./mL)=number of plaques×5×3^n; where n represents the nth dilution of the virus used to infect the well in which plaques were enumerated.
(b) HSV-1. An enzyme-linked immunosorbent assay (ELISA) was employed to detect HSV-1. 96-well cluster dishes were planted with BSC-1 cells at 10,000 cells per well, in a total volume of 200 μL per well of MEM(E) plus 10% calf serum. After overnight incubation at 37° C., drug and HSV-1 was added at the rate of 100 PFU/well. ELISA plates were blocked with 200 μL per well of 10% calf serum and 0.05% tween in HBS. After incubation for 30 minutes, the blocking agent was rinsed two times with HBS-T. A 1:400 dilution of AP conjugated rabbit anti-HSV-1 antibody in HBS-F was added. Plates were sealed with adhesive sheet, and incubated on rocker for one hour at 37° C. Plates were developed in the dark with 100 μL per well of substrate solution containing p-nitrophenyl phosphate. Plates were read at […]. Drug effects were calculated as a percentage of the reduction in virus in the presence of each drug concentration compared to the titer obtained in the absence of drug. Acyclovir was used as a positive control in all experiments.
as §3

CEM cells = assay: Cytotoxicity in growing CEM cells, microscopic inspection; format: cell-based
Procedure: as §1, §2, §3

HCMV = HCMV plaque reduction assay in HFF cells; format: cell-based, Human CMV (HCMV); settings: HFF cells; plaque reduction
Procedure: as §1, §4
(a) HCMV. The effect of compounds on the replication of HCMV has been measured using a plaque reduction assay. HFF cells in 24-well cluster dishes were infected with approximately 100 p.f.u. of HCMV per cm^2 cell sheet using the procedures detailed above. Following virus adsorption, compounds dissolved in growth medium were added to duplicate wells in three to six selected concentrations. Following incubation at 37° C. for 7 to 10 days, cell sheets were fixed, stained with crystal violet and microscopic plaques enumerated as described above. Drug effects were calculated as a percentage of reduction in number of plaques in the presence of each drug concentration compared to the number observed in the absence of drug. Ganciclovir (DHPG) was used as a positive control in all experiments.
as §3

[1] = Toxicity controls: uninfected mice given test compound; format: in vivo; settings: 5.6, 16.7 and 50 mg/kg i.p. once daily for five days
Procedure: (§5) Compounds 1 (B=adenin-N^9-yl and guanin-N^9-yl) were evaluated in mice infected with murine cytomegalovirus (MCMV). Mice were infected intraperitonealy with sufficient MCMV to produce 90 to 100% mortality. Compounds were administered once daily for five days at doses of 5.6, 16.7 and 50 mg/kg by intraperitoneal injection in a 0.4% suspension of carboxymethylcellulose. Ganciclovir was administered in sterile water at the same doses as a positive control drug. All compounds were administered to separate groups of 15 mice each at 6, 24, and 48 hours after infection with MCMV. Groups of 10 uninfected mice also received test compounds as toxicity controls at the doses listed above.

[2] = tested on: murine cytomegalovirus (MCMV); assay: Mortality of mice infected with murine cytomegalovirus; format: in vivo
Procedure: as §5

## Nc1ncnc2c1ncn2C=C1CC1CO (stereo not drawn) [1 (B = adenine), Example 5, syn-N^9-(2-hydroxymethylcyclopropylidenemethyl)adenine]
KB cells
  IC50: 82 µM
HSV-1
  IC50: 3.7 µM
CEM cells
  IC50: > 100 µM
HCMV
  IC50: 2 µM
[1]
  deaths in uninfected mice that received only drug: No deaths were observed
[2]; 50 mg/kg i.p. once daily for five days, placebo 100%
  mortality of MCMV-infected mice: 33%
[2]; lower doses, administration delayed until 24 or 48 hours after infection
  effect on mortality at lower doses or delayed administration: Decreasing effects
